These results are taken from paper PMC2774619 (Current Chemical Genomics, 2008).

Where a name gives a salt, the structure may show the parent alone. Peptide text beside a SMILES is read from it.

The target in experiment [1] is murine M1 muscarinic acetylcholine receptor (Rattus norvegicus, UniProt P08482). Description: cell-based. Conditions: IC50, IP-One Assay.
Experiment [2] has as its target free fatty acid receptor 1 (FFAR1) (Homo sapiens, UniProt O14842).
For the next experiment, the target named is NPS receptor. Conditions: read-out: Kd value of NPS receptor binding; reported previously; cited from earlier work.
Experiment [3] concerns the target neuropeptide S (NPS) receptor (Homo sapiens, UniProt Q6W5P4). Conditions: NPSR.
For experiment [4], the target named is NPS receptor (Homo sapiens) (UniProt Q6W5P4). Conditions: cited from earlier work.
NPS receptor (Homo sapiens), sequence (Q6W5P4 whole entry): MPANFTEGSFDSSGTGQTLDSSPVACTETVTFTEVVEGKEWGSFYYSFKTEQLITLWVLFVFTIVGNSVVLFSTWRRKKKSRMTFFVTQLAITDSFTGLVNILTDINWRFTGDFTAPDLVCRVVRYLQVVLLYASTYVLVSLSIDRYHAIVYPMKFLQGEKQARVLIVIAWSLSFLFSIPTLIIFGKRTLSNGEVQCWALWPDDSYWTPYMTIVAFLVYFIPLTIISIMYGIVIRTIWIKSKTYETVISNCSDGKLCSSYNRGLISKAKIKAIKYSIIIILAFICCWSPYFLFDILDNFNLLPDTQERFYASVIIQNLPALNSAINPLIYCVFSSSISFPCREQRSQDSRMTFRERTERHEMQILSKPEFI

murine M1 muscarinic acetylcholine receptor, sequence (P08482 whole entry): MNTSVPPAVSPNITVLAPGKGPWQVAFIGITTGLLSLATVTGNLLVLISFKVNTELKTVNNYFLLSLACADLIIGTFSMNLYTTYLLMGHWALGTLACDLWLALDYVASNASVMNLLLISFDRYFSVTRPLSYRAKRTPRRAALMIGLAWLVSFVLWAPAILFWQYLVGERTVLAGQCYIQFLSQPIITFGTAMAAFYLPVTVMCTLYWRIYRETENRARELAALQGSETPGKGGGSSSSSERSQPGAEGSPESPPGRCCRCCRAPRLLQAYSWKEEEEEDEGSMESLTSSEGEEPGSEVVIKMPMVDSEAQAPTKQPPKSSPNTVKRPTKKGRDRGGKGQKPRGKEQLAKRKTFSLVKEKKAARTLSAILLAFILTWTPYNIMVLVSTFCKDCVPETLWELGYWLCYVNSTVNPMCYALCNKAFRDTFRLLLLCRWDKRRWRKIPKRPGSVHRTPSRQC
free fatty acid receptor 1 (FFAR1), sequence (O14842 whole entry, species assumed): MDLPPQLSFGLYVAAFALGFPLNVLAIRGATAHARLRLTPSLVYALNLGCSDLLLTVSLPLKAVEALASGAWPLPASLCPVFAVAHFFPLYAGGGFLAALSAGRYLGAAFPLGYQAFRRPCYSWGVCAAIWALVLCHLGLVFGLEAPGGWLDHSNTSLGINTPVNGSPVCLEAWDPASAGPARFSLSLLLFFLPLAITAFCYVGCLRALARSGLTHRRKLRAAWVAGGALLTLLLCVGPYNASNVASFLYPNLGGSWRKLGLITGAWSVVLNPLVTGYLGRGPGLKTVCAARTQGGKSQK
neuropeptide S (NPS) receptor, sequence (Q6W5P4 whole entry): as the sequence (Q6W5P4 whole entry) above
Neuropeptide S, sequence (P0C0P6 68-89): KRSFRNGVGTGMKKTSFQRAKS

Molecule `C[N+]1(C)[C@@H]2CC[C@H]1C[C@@H](OC(=O)C(CO)c1ccccc1)C2` (mixture of isomers) [Atropine methyl bromide] came in with an IC50 in experiment [1] of 3 nM. That is a single-digit nanomolar value. Still for that read-out and setting: the same measure for `C[N+]1(C)[C@@H]2CC[C@H]1C[C@@H](OC(=O)C(CO)c1ccccc1)C2` (mixture of isomers) [Atropine methyl nitrate]: 1 nM. The molecule `CN1[C@@H]2CC[C@H]1C[C@@H](OC(c1ccccc1)c1ccccc1N)C2` (some centres unmarked) [Aminobenztropine] showed an IC50 in experiment [1] of 3 nM. Against the preceding molecule, the IC50 is about 3-fold higher. Take `O=C(O)CCc1ccc(NCc2cccc(Oc3ccccc3)c2)cc1` [GW9508]: in experiment [2], the “Ratio b/a (EC50 IP-One / EC50 calcium)” value is listed as 1.1. Consider `CC[N+](CC)(CC)CCOc1ccc(/C=C/c2ccccc2)cc1` [MG 624], for which half-maximal inhibition in experiment [1] (IC50) required 398 nM. As to `CSCC[C@H](NC(=O)CNC(=O)[C@@H](NC(=O)CNC(=O)[C@@H](NC(=O)CNC(=O)[C@H](CC(N)=O)NC(=O)[C@H](CCCNC(=N)N)NC(=O)[C@H](Cc1ccccc1)NC(=O)[C@@H](N)CO)C(C)C)[C@@H](C)O)C(=O)N[C@@H](CCCCN)C(=O)N[C@@H](CCCCN)C(=O)N[C@H](C(=O)N[C@@H](CO)C(=O)N[C@@H](Cc1ccccc1)C(=O)N[C@@H](CCC(N)=O)C(=O)N[C@@H](CCCNC(=N)N)C(=O)N[C@@H](C)C(=O)N[C@@H](CCCCN)C(=O)N[C@@H](CO)C(=O)O)[C@@H](C)O` [NPS, neuropeptide S] (H-SFRNGVGTGMKKTSFQRAKS-OH), the Kd at NPS receptor is 0.33 nM. In addition, the “Ratio b/a (EC50 IP-One / EC50 calcium)” value in experiment [3] was found to be 1.9.

In experiment [1], `CC(=O)O[C@H]1C[C@@H]2CC[C@@H]3[C@H](CC[C@@]4(C)[C@H]3C[C@H]([N+]3(C)CCCCC3)[C@@H]4OC(C)=O)[C@@]2(C)C[C@@H]1[N+]1(C)CCCCC1` [Pancuronium bromide] yielded a 50% inhibitory concentration (IC50) of 12600 nM.

`CC(C)[N+](C)(CCOC(=O)C1c2ccccc2Oc2ccccc21)C(C)C` [Propantheline bromide] registered an IC50 in experiment [1] of 1 nM. This IC50 lies about 13000-fold lower than the previous one. On the same count and under the same terms, then `Cc1scc2c1N(C(=O)CN1CCN(C)CC1)c1ccccc1NC2=O` [Telenzepine dihydrochloride], with 25 nM. In the case of Neuropeptide S (from UniProt P0C0P6), the dissociation constant (Kd) in experiment [4] was 0.33 nM.

Broadly, the IC50 is the concentration that inhibits the measured activity by half. Read a high IC50 as lower potency. The term Kd denotes the constant that tells how readily two partners part at equilibrium.
